In patent US20080115593A1, “Method for Detecting Conformational Change of Calmodulin, a Method for Screening a Substance Having an Activity that Affects to Conformational Change of Calmodulin” (FUENCE CO., LTD., priority 2004, published 2008):

Target: T1, Calmodulin derived from bovine (Bos taurus, UniProt P62157)
T1 construct: purchased Sigma
Experiment: Tension and elasticity change of calmodulin film detected by mechanochemical sensor (Example 1)
Type: binding
Conditions: FIG. 1; for isotropic tension of the calmodulin film: 10 mM Hepes buffer pH7.4 containing 0.1 M NaCl, flow 0.1 to 0.2 mL/min
Procedure: Calmodulin derived from bovine (Sigma) was dissolved into purified water at a concentration of 2 mg/ml. This solution was sprayed under dry air using an electrospry device described in WO 2002-511792 or an immobilzing device described in Japanese Patent Publication No. 2003-136005. The solution was permeated through a mask with holes of 400 μm in length and 800 μm in width, and then a film was prepared on 1.2% polyvinylpyrrolidone using an electrospray method (the EDS method). The resulting film was placed on an apparatus having a mechanochemical sensor which was described in WO 2002-503332 or U.S. Pat. Publication No. 6,033,913, and it was immersed into 10 mM Hepes buffer solution pH7.4 (hereinafter referred to as “the buffer solution”) containing 0.1 M NaCl. The buffer solution was passed through the film existing on the detecting apparatus at the flow rate of 0.1 to 0.2 mL/min, in order to stabilize the tension of the sample film. Thereafter CaCl2 solution dissolved in said buffer solution was passed through at the same flow rate to detect changes in tension and elasticity (FIG. 1).
A place where the horizontal line (indicating the initial state) uprises means a point where tension is given to the sample film, and compliance is detected where the line oscillates. […] Meanwhile, for example, following review can be refereed to the conformational change of calmodulin, (Vetter S. W. and Leclerc, E. (2003). Novel aspects of calmodulin target recognition and activation. Eur. J. Biochem. 270, 404-414).

Compound	isotropic tension of the calmodulin film	reversibility of the effect on the film when restored by the buffer solution (buffer solution passed after CaCl2)
[Ca+2].[Cl-].[Cl-] [CaCl2]	remarkably increases	reversible
O=C(O)CN(CCN(CC(=O)O)CC(=O)O)CC(=O)O [EDTA]	further decreases	
